According to patent US12097203B2, “Combination therapies comprising SHP2 inhibitors and PD-1 inhibitors” (HUYABIO International, LLC, priority 2021, dated 2024):

Tested on: MC38 tumor
Test: Cytokine detection assay (V-Plex Proinflammatory Panel 1 Mouse Kit) in MC38 tumor bearing animals
Assay type: in vivo, mice
Conditions: MC38 tumor model, plasma from tumor bearing animals 2 hours post last dose
Excerpt: Reagents: GH21001 (TNO-155), GH21005 (compound of Formula Ia) were supplied by HUYA Biosciences, USA, RMC-4550 was purchased from MCE, China. Osimertinib was purchased from Selleck, China. Cisplatin was purchased from Qilu Pharma, China. Anti-PD-1 (RMP1-14) and Rat IgG2a antibodies were purchased from BioXCell (China).
All cell lines were maintained in culture and cells in exponential growth phase were harvested and quantitated by cell counter before tumor inoculation. MC38 tumor cells (1×10^6) in 0.1 ml of PBS were inoculated into the right front flank of female C57/Bl animals, mean tumor size approximately 112 mm^3 at the start of treatment.
The date of randomization and treatment initiation was denoted as day 0. Tumor volumes were measured twice per week in two dimensions using a caliper, and the volume will be expressed in mm3 using the formula: V=(L×W×W)/2, where V is tumor volume, L is tumor length (the longest tumor dimension) and W is tumor width (the longest tumor dimension perpendicular to L). Dosing volume was 10 mL/kg/day. […]
Cytokine detection assay: V-Plex Proinflammatory Panel 1 Mouse Kit (Mesoscale Discovery) was used to determine cytokine levels in plasma isolated from tumor bearing animals 2 hours post last dose. Plasma from tumor bearing animals was analyzed as described by the manufacture's guidelines. […]

C[C@@H]1OCC2(CCN(c3cnc(Sc4cccc(NC(=O)c5c(O)nc6n(c5=O)CCCC6)c4Cl)cn3)CC2)[C@@H]1N [compound of Formula (Ia), N-(3-((5-((3S,4S)-4-amino-3-methyl-2-oxa-8-azaspiro[4.5]decan-8-yl)pyrazin-2-yl)thio)-2-chlorophenyl)-2-hydroxy-4-oxo-6,7,8,9-tetrahydro-4H-pyrido[1,2-a]pyrimidine-3-carboxamide]
KC/GRO level (FIG. 2A): slight decreases | TNF-alpha level (FIG. 2B): slight decreases
